In ChEMBL document CHEMBL3301361, “Experimental in vitro DMPK and physicochemical data on a set of publicly disclosed compounds”:
≈ marks a conversion by molar mass, not a printed value.

Key:
physchem [1] = conditions: pH 7.4 buffer
physchem [2] = conditions: octan-1-ol/water

Structure (SMILES)	solubility thermodynamic (physchem [1]) [µM]	logD (physchem [2]; pH 7.4, LogD7.4)	logD (physchem [2]; pH 7.4)
Cc1ncc(-c2ccnc(Nc3ccc(S(N)(=O)=O)cc3)n2)n1C	36.3 (≈ 12.5 µg/mL)	1.6	–
COc1cc(C(=O)NS(=O)(=O)c2ccccc2)ccc1Cn1ncc2ccc(NC(=O)CC3CCCC3)cc21	251 (≈ 137 µg/mL)	1.6	–
Nc1cccc(NC(=O)c2ccc(CNC(=O)OCc3cccnc3)cc2)c1	21.9 (≈ 8.24 µg/mL)	1.6	–
Nc1ccc(OCc2ccccc2)cc1 [4-BENZYLOXYANILINE]	468 (≈ 93.2 µg/mL)	2.2	–
Nc1ncnc2c1ncn2Cc1ccccc1 [9-BENZYL-9H-ADENINE]	246 (≈ 55.3 µg/mL)	1.53	–
CN(C)C/C=C/C(=O)Nc1cc2c(Nc3ccc(F)c(Cl)c3)ncnc2cc1O[C@H]1CCOC1 [AFATINIB]	93.3 (≈ 45.3 µg/mL)	3.7	–
Nc1ncnc(Nc2ccccc2)n1 [AMANOZINE]	246 (≈ 46 µg/mL)	1.4	–
O=C1CN2Cc3c(ccc(Cl)c3Cl)N=C2N1 [ANAGRELIDE]	5.4 (≈ 1.38 µg/mL)	1.86	–
CNC(=O)c1ccccc1Sc1ccc2c(/C=C/c3ccccn3)n[nH]c2c1 [AXITINIB]	0.5 (≈ 0.193 µg/mL)	3.8	–
Cc1ccc(C(=O)Oc2ccc(C(O)CNC(C)(C)C)cc2OC(=O)c2ccc(C)cc2)cc1 (centres undefined) [BITOLTEROL]	81.3 (≈ 37.5 µg/mL)	3.57	–
Cc1ccc2nc(NCCN)c3ncc(C)n3c2c1 [BMS-345541]	246 (≈ 62.7 µg/mL)	0.88	–
Cc1cc2c(F)c(Oc3ncnn4cc(OC[C@@H](C)OC(=O)[C@H](C)N)c(C)c34)ccc2[nH]1 [BRIVANIB ALANINATE]	37.2 (≈ 16.4 µg/mL)	3.19	–
NC1=NN(c2cccc(C(F)(F)F)c2)CC1 [BW-755C]	1450 (≈ 331 µg/mL)	2.55	–
CC1(COc2ccc3c(c2)ncn3-c2ccc3cccc(N4CCC(N)CC4)c3n2)COC1 [CRENOLANIB]	5.1 (≈ 2.26 µg/mL)	1.99	–
c1ccc(Nc2ccccc2)cc1 [DIPHENYLAMINE]	178 (≈ 30.1 µg/mL)	3.2	–
Cc1oc(-c2ccccc2)nc1CCOc1ccc(C[C@H](Nc2ccccc2C(=O)c2ccccc2)C(=O)O)cc1 [FARGLITAZAR]	35.5 (≈ 19.4 µg/mL)	3.5	–
CC1CCc2cc(F)cc3c(=O)c(C(=O)O)cn1c23 (centres undefined) [FLUMEQUINE]	776 (≈ 203 µg/mL)	–	0.74
CC(C)C(=O)Nc1ccc([N+](=O)[O-])c(C(F)(F)F)c1 [FLUTAMIDE]	89.1 (≈ 24.6 µg/mL)	–	3.46
Cc1cccc(-c2nn3c(c2-c2ccnc4ccc(C(N)=O)cc24)CCC3)n1 [GALUNISERTIB]	182 (≈ 67.2 µg/mL)	1.71	–

Structure (SMILES)	solubility thermodynamic (physchem [1]) [µM]	logD (physchem [2]; pH 7.4, LogD7.4)	logD (physchem [2]; pH 7.4)
COc1ccc2c(c1)[nH]c1c(C)nccc12 [HARMINE]	55 (≈ 11.7 µg/mL)	–	2.9
O=C(N[C@@H](Cc1ccccc1)[C@@H](O)C(=O)N1C[C@@H](O)[C@@H](O)C1)c1cc2cc(Cl)ccc2[nH]1 [INGLIFORIB]	436 (≈ 200 µg/mL)	2.8	–
O=c1cc(N2CCOCC2)oc2c(-c3ccccc3)cccc12 [LY-294002]	302 (≈ 92.8 µg/mL)	2.9	–
NC1(c2ccc(-c3nc4ccn5c(=O)[nH]nc5c4cc3-c3ccccc3)cc2)CCC1 [MK-2206]	4.7 (≈ 1.92 µg/mL)	2.5	–
Nc1ccccc1NC(=O)c1ccc(CNc2nccc(-c3cccnc3)n2)cc1 [MOCETINOSTAT]	13.5 (≈ 5.35 µg/mL)	2.28	–
CCOC(=O)Nc1ccc2c(c1)N(C(=O)CCN1CCOCC1)c1ccccc1S2 [MORICIZINE]	83.2 (≈ 35.6 µg/mL)	3.1	–
COc1cc2c(c(OC)c1OC)-c1ccc(O)cc1[C@@H](NC(C)=O)CC2 [N-ACETYLCOLCHINOL]	813 (≈ 290 µg/mL)	–	1.81
COC(=O)C1=C(C)NC(C)=C(C(=O)OCC(C)C)C1c1ccccc1[N+](=O)[O-] (centres undefined) [NISOLDIPINE]	2.2 (≈ 0.855 µg/mL)	3.59	–
NC(=O)c1c(OCc2c(F)cc(Br)cc2F)nsc1NC(=O)NCCCCN1CCCC1 [OSI-632]	77.6 (≈ 41.3 µg/mL)	2.5	–
COc1ccc(Cc2nccc3cc(OC)c(OC)cc23)cc1OC [PAPAVERINE]	38 (≈ 12.9 µg/mL)	–	2.81
Nc1ncnc2c1C(=O)N(c1ccc([C@H]3CC[C@H](CC(=O)O)CC3)cc1)CCO2 [PF-04620110]	759 (≈ 301 µg/mL)	-0.5	–
CCc1cccc(CC)c1NC(=O)N1Cc2n[nH]c(NC(=O)c3ccc(N4CCN(C)CC4)cc3)c2C1 [PHA-680632]	107 (≈ 53.8 µg/mL)	3.31	–
CCc1ccc(CCOc2ccc(CC3SC(=O)NC3=O)cc2)nc1 (centres undefined) [PIOGLITAZONE]	2 (≈ 0.713 µg/mL)	2.8	–
CC(=O)[C@H]1CC[C@H]2[C@@H]3CCC4=CC(=O)CC[C@]4(C)[C@H]3CC[C@]12C [PROGESTERONE]	37.2 (≈ 11.7 µg/mL)	–	3.94
Cn1c(=O)c(Oc2ccc(F)cc2F)cc2cnc(NC3CCOCC3)nc21 [R-1487]	20.4 (≈ 7.92 µg/mL)	2.76	–
O=C(CO)N1CCC(c2[nH]nc(-c3ccc(Cl)cc3)c2-c2ccncn2)CC1 [SD-0006]	60.3 (≈ 24 µg/mL)	1.85	–
CC(=O)Nc1ccc(C(=O)Nc2ccccc2N)cc1 [TACEDINALINE]	631 (≈ 170 µg/mL)	0.82	–
C[C@@H]1CN(Cc2ccc(F)cc2)[C@@H](C)CN1C(=O)c1cc2c(C(=O)C(=O)N(C)C)cn(C)c2cc1Cl [TALMAPIMOD]	52.5 (≈ 26.9 µg/mL)	–	3.6
